Reference: patent publication US11103526B2, “Methods for treatment using small molecule potassium-sparing diuretics and natriuretics” (University of Pittsburgh—Of the Commonwealth System of …, priority 2016, dated 2021)

Legend:
DOCA-salt hypertension = assay: DOCA-salt hypertension, long-term MABP by radiotelemetry; assay type: in vivo, rats; conditions: for development of DOCA-salt hypertension / basal MABP: 5 mg/kg/day; for development of DOCA-salt hypertension: initiated 13 days before inducing DOCA-salt hypertension; for basal MABP: pretreatment 13 days before inducing DOCA-salt hypertension
Protocol: This example describes the effects of 8-aminoguanosine and 8-aminoguanine on DOCA-salt hypertension. Rats were instrumented for long-term and continuous measurement of arterial blood pressure by radiotelemetry as recently described (Jackson E K et al., Hypertension, 65:238-249, 2015). After at least 20 days of from the time of radiotransmitter implantation, hypertension was induced in the animals by removing one kidney, subcutaneously administering deoxycorticosterone acetate (30 mg/kg twice weekly), and providing 1% NaCl as drinking water (i.e., DOCA-salt hypertension). At this time, some animals were also randomized to receive either drinking water without 8-aminoguanosine or drinking water containing 8-aminoguanosine (10 mg/kg/day). In two other experiments, 8-aminoguanosine ([…]) or 8-aminoguanine (5 mg/kg/day) was administered 13 days before DOCA-salt hypertension was induced.
Results. Three studies were conducted to assess the effects of 8-aminoguanosine and 8-aminoguanine on DOCA-salt hypertension. In one study, DOCA-salt hypertension was induced at the same time that treatment with 8-aminoguanosine (10 mg/kg/day) was initiated. In two other studies, treatment with 8-aminoguanosine (5 mg/kg/day) or 8-aminoguanine (5 mg/kg/day) was initiated 13 days before inducing DOCA-salt hypertension. Treatments were maintained for the duration of the studies, and the MABP was continuously monitored by radiotelemetry. As shown in FIGS. 10A-10C, 8-aminoguanosine at 10 mg/kg/day prevented DOCA-salt hypertension.

[1] = test system: spontaneously hypertensive rats (SHR); assay: Long-term MABP in spontaneously hypertensive rats; assay type: in vivo; conditions: 5 mg/kg/day in drinking water; significant during weeks 2-5
Excerpt: This example describes the long-term effects of 8-aminoguanine (FIGS. 12A-12B) and 8-aminoguanosine (FIGS. 13A-13B) on mean arterial blood pressure (MABP) in spontaneously hypertensive rats (SHR). SHR are a well-established animal model of genetic hypertension that is not salt sensitive. All animals were instrumented for long-term measurement of MABP by radiotelemetry as previously described (Jackson E K et al., Hypertension, 65:238-249, 2015). Group 1 SHR received only normal drinking water; whereas Group 2 received normal drinking water for 7 days, and then were provided drinking water containing 8-aminoguanine or 8-aminoguanosine (5 mg/kg/day) for the remainder of the study.

[2] = test system: obese Zucker Diabetic Sprague Dawley rats (ZDSD); assay: Long-term MABP in obese Zucker Diabetic Sprague Dawley rats; assay type: in vivo; conditions: 10 mg/kg/day in drinking water; also with 1% salt and diabetogenic diet
Excerpt: This example describes the long-term effects of 8-aminoguanine (FIG. 14A) and 8-aminoguanosine (FIG. 14B) on mean arterial blood pressure (MABP) in obese Zucker Diabetic Sprague Dawley rats (ZDSD). Obese ZDSD are a recently developed model (developed by PreClinOmics) of metabolic syndrome that have a mild elevation of MABP and have dyslipidemia, diabetes, and obesity. All animals were instrumented for long-term measurement of MABP by radiotelemetry as previously described (Jackson E K et al., Hypertension, 65:238-249, 2015). Group 1 ZDSD received only normal drinking water, whereas Group 2 received normal drinking water for 7 days and then were provided drinking water containing 8-aminoguanine or 8-aminoguanosine (10 mg/kg/day) for the remainder of the study. The experiment was divided into three phases (indicated by the boxes). During phase 1, no other treatments were provided. During phase 2, all animals received 1% salt (NaCl) in their drinking water. During phase 3, all animals were provided (in addition to 1% salt in the drinking water) a diabetogenic diet to worsen diabetes. The numbers in each box are the average MABP in Group 2 versus Group 1 during the time period indicated by the box. P-values comparing Group 2 versus Group 1 during each phase of the experiment are also provided.

anesthetized rats = assay: Protocol 1: head-to-head intravenous bolus in anesthetized rats (Example 11); assay type: in vivo, male Sprague-Dawley rats; conditions: 33.5 μmoles/kg intravenous bolus versus vehicle
Protocol: Animals. Male Sprague-Dawley rats (Charles River; Wilmington, Mass.) approximately 16 weeks old were employed. The Institutional Animal Care and Use Committee approved all procedures. The investigation conforms to National Institutes of Health Guide for the Care and Use of Laboratory Animals.
Protocol 1. After inducing anesthetization with Inactin® (90 mg/kg, i.p.), each rat was positioned on an isothermal pad. A thermometer probe was inserted into the rectum, and the rat's body temperature was continuously monitored and maintained at 37° C. by adjusting the distance of a heat lamp from the animal's body. Using polyethylene (PE)-240 tubing, the trachea was cannulated to aid respiration. Next, a PE-50 cannula was inserted into the carotid artery and connected to a digital blood pressure analyzer (Micro-Med, Inc., Louisville, Ky.) for continuous measurement of mean arterial blood pressure (MABP) and heart rate (HR). A PE-50 cannula was placed in the jugular vein, and infusion of 0.9% saline (50 μl/min) began. After a stabilization period of approximately one hour, urine was collected for 30 minutes, while MABP and HR were time-averaged (Period 1: 0-30 minutes into protocol). Next, 8-aminoguanosine (33.5 μmoles/kg; 1 ml/kg) or 8-aminoguanine (33.5 μmoles/kg; 1 ml/kg) or vehicle (0.9% saline containing 0.03 N HCl; 1 ml/kg) was administered intravenously as a bolus. The dose was selected based on Examples 1-7. Rats were randomized to treatment groups, and the rats in each group received only one treatment. Ten minutes after the treatments, urine was collected for another 30 minutes (Period 2: […] into protocol). After a 15-minute rest period, urine was again collected for 30 minutes (Period 3: 85-115 minutes into protocol). During each urine collection period, the MABP and HR were continuously recorded. Further, at the midpoint of each 30-minute urine collection period, a blood sample (0.5 ml) was obtained to measure plasma creatinine (Creatinine Colorimetric Assay Kit; catalogue number, 500701; Cayman Chemical; Ann Arbor, Mich.) and aldosterone (Aldosterone ELISA Kit; catalogue number, ADI-900-173; Enzo Life Sciences, Farmingdale, N.Y.) and to determine sodium and potassium by flame photometry (Model IL-943; Instrumentations Laboratory Inc., Lexington, Mass.). Sodium and potassium were also measured in urine (flame photometry) as was glucose (Glucose Colorimetric Assay Kit; catalogue number, 10009582; Cayman Chemical). Creatinine clearance was calculated as an estimate of glomerular filtration rate (GFR).
Statistics. Statistical analysis was performed using 1- or 2-factor repeated measures analysis of variance (ANOVA) followed by a Fisher's Least Significant Difference (LSD) test if the effects in the ANOVA were significant. The criterion of significance was p<0.05. The values are presented as the mean±SEM. […]

| SMILES | development of DOCA-salt hypertension (DOCA-salt hypertension) | basal MABP (DOCA-salt hypertension) | MABP in SHR [1] | MABP in metabolic syndrome (obese ZDSD) [2] | MABP (anesthetized rats) | glomerular filtration rate (GFR; creatinine clearance) (anesthetized rats) | heart rate (HR) (anesthetized rats) | plasma aldosterone concentrations (anesthetized rats) | urinary glucose excretion (anesthetized rats) | urinary potassium excretion (anesthetized rats) | urinary sodium excretion (anesthetized rats) | urine volume (anesthetized rats) | DOCA-salt hypertension (MABP) (DOCA-salt hypertension; 10 mg/kg/day in drinking water, started when hypertension was induced) |
| --- | --- | --- | --- | --- | --- | --- | --- | --- | --- | --- | --- | --- | --- |
| Nc1nc2[nH]c(N)nc2c(=O)[nH]1 [8-aminoguanine, 8-Aminoguanine] | markedly attenuated | did not affect | antihypertensive | decrease MABP | neither 8-aminoguanosine nor 8-aminoguanine acutely affected | significantly lower | neither 8-aminoguanosine nor 8-aminoguanine acutely affected | neither 8-aminoguanosine nor 8-aminoguanine acutely affected | significantly greater | significantly lower | significantly greater | significantly greater | – |
| Nc1nc2c(nc(N)n2[C@@H]2O[C@H](CO)[C@@H](O)[C@H]2O)c(=O)[nH]1 [8-aminoguanosine, 8-Aminoguanosine] | markedly attenuated | did not affect | antihypertensive | decrease MABP | neither 8-aminoguanosine nor 8-aminoguanine acutely affected | significantly lower | neither 8-aminoguanosine nor 8-aminoguanine acutely affected | neither 8-aminoguanosine nor 8-aminoguanine acutely affected | significantly greater | significantly lower | significantly greater | significantly greater | prevented |
